Experimental data published in patent publication US9783505B2, “Substituted diaminopyrimidyl compounds, compositions thereof, and methods of treatment therewith” (Signal Pharmaceuticals, LLC, priority 2013, dated 2017).
Like-named read-outs stand apart in the source and are kept apart here.

Target: T1, His-PKC-theta (Homo sapiens, UniProt Q04759)
T1 construct: His; purchased Invitrogen
Assay: PKC-theta Assay (384-well time resolved fluorescence, IMAP TR-FRET)
Assay type: biochemical
Conditions: read-out: Act. Level (IC50 in the PKC-theta Assay)
Experimental: PKC-theta Assay. A 384-well time resolved fluorescence assay was used to monitor PKC-theta activity. The PKC-theta assay was run in the following assay buffer: 50 mM HEPES pH 7.6, 10 mM MgCl2, 1 mM DTT, 0.01% Triton X-100, 0.01% BSA and 0.1 mM EDTA. To initiate the reaction, 200 nM of Fam-labeled S6-derived peptide (Molecular Devices) and 10 μM of ATP were mixed with 142 pM of His-PKC-theta (Invitrogen) for a total assay volume of 25 μL in each well. The assay was incubated at room temperature for 2 hours and terminated using a 60 μL/well mixture of Detection Binding Solution: 70% IMAP Progressive Binding Buffer A, 30% IMAP Progressive Binding Buffer B, 1:600 Progressive Binding Reagent, and 1:400 TR-FRET Tb Donor (Molecular Devices). The assay plates were then incubated overnight at room temperature and read on a Perkin-Elmer Envision Reader.

T1 sequence (Q04759 whole entry): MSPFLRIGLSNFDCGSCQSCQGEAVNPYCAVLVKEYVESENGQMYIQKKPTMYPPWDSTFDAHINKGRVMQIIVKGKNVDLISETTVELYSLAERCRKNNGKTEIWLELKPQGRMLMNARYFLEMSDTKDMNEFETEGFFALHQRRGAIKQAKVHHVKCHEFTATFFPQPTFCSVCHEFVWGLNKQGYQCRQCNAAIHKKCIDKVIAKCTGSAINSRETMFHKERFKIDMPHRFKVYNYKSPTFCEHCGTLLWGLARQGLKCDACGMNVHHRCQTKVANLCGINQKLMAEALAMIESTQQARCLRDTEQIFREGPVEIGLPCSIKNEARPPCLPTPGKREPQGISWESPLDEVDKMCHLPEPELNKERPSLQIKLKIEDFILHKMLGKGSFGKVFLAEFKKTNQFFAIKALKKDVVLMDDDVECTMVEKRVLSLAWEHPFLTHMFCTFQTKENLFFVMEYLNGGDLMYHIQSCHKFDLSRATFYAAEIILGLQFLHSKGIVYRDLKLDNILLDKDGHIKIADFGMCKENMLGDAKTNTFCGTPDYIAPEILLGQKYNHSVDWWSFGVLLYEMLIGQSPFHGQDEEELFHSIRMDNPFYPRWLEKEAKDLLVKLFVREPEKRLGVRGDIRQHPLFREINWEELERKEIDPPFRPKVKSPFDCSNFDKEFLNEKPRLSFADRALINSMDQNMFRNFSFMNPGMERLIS

Row | SMILES | IC50 (Table 2) [nM] | IC50 [nM]
1 | N#Cc1cnc(NCCc2ccc(F)c(Cl)c2)nc1N[C@H]1CC[C@@H](C(N)=O)CC1 [Cmpd 90] | < 100 | –
2 | N#Cc1cnc(NCc2cnccc2C(F)(F)F)nc1NC1CC(O)C1 (stereo not drawn) [Cmpd 90] | – | < 100
3 | CC1(C)[C@H](CO)C[C@@H]1Nc1nc(NCc2cnccc2C(F)(F)F)ncc1C(F)(F)F [Cmpd 91] | – | 100 to 800
4 | N#Cc1cnc(NCCc2ccc(F)cc2)nc1N[C@H]1CC[C@@H](C(N)=O)CC1 [Cmpd 91] | 100 to 800 | –
5 | CC1(C)C[C@H](Nc2nc(NCCc3ccc(F)cc3)ncc2C#N)CC[C@@H]1O [Cmpd 93] | 100 to 800 | –
6 | CC1(C)[C@H](O)C[C@H]1Nc1nc(NCc2cncnc2-c2ccc(F)cc2)ncc1C#N [Cmpd 93] | – | 100 to 800
7 | COc1ccc(CCNc2ncc(C#N)c(N[C@@H]3CC[C@H](O)C(C)(C)C3)n2)cc1 [Cmpd 94] | 100 to 800 | –
8 | O[C@H]1C[C@H](Nc2nc(NCc3cnccc3C(F)(F)F)ncc2C(F)(F)F)C1 [Cmpd 94] | – | 100 to 800
9 | COc1cc(CCNc2ncc(C#N)c(N[C@@H]3CC[C@H](O)C(C)(C)C3)n2)ccc1O [Cmpd 95] | 100 to 800 | –
10 | O[C@H]1C[C@@H](Nc2nc(NCc3cnccc3C(F)(F)F)ncc2C(F)(F)F)C1 [Cmpd 95] | – | 100 to 800
11 | COc1cccc(CCNc2ncc(C#N)c(N[C@@H]3CC[C@H](O)C(C)(C)C3)n2)c1OC [Cmpd 96] | 100 to 800 | –
12 | N#Cc1cnc(NCc2cncnc2C(F)(F)F)nc1N[C@H]1CC[C@@H](O)CC1 [Cmpd 96] | – | 100 to 800
13 | CC1(C)C[C@H](Nc2nc(NCCc3ccccc3C(F)(F)F)ncc2C#N)CC[C@@H]1O [Cmpd 97] | 100 to 800 | –
14 | CC1(C)[C@H](O)C[C@@H]1Nc1nc(NCc2cncnc2-c2ccc(F)cc2)ncc1C(F)(F)F [Cmpd 97] | – | 100 to 800
15 | CC(F)(F)COc1ncncc1CNc1ncc(C#N)c(N[C@H]2C[C@@H](O)C2(C)C)n1 [Cmpd 99] | – | 100 to 800
16 | CC1(C)C[C@H](Nc2nc(NCCc3ccc(C(F)(F)F)cc3)ncc2C#N)CC[C@@H]1O [Cmpd 99] | 100 to 800 | –
17 | CC1(C)C[C@H](Nc2nc(NCCc3ccc(Cl)cc3Cl)ncc2C#N)CC[C@@H]1O [Cmpd 100] | 100 to 800 | –
18 | CC(C)(O)[C@H]1CC[C@H](Nc2nc(NCc3cnccc3C(F)(F)F)ncc2C#N)CC1 [Cmpd 101] | – | 100 to 800

Row | SMILES | IC50 (Table 2) [nM] | IC50 [nM]
19 | CC1(C)C[C@H](Nc2nc(NCCc3ccc(Cl)c(Cl)c3)ncc2C#N)CC[C@@H]1O [Cmpd 101] | 100 to 800 | –
20 | CC1(C)[C@@H](O)C[C@H]1Nc1nc(NCCc2ccc(F)cc2)ncc1C#N [Cmpd 102] | 100 to 800 | –
21 | COC1CC(Nc2nc(NCc3cnccc3C(F)(F)F)ncc2C(F)(F)F)C1(C)C (stereo not drawn) [Cmpd 102] | – | 100 to 800
22 | COC1CC(Nc2nc(NCc3cnccc3C(F)(F)F)ncc2C(F)(F)F)C1(C)C (stereo not drawn) [Cmpd 103] | – | 100 to 800
23 | COc1ccc(CCNc2ncc(C#N)c(N[C@@H]3C[C@H](O)C3(C)C)n2)cc1 [Cmpd 103] | 100 to 800 | –
24 | COc1cc(CCNc2ncc(C#N)c(N[C@@H]3C[C@H](O)C3(C)C)n2)ccc1O [Cmpd 104] | 2000 to 10000 | –
25 | CC1(C)[C@H](O)C[C@H]1Nc1nc(NCc2c[n+]([O-])ccc2C(F)(F)F)ncc1C(F)(F)F [Cmpd 105] | – | 100 to 800
26 | COc1cccc(CCNc2ncc(C#N)c(N[C@@H]3C[C@H](O)C3(C)C)n2)c1OC [Cmpd 105] | 800 to 2000 | –
27 | CC1(C)[C@@H](O)C[C@H]1Nc1nc(NCCc2ccc(Cl)cc2Cl)ncc1C#N [Cmpd 106] | 100 to 800 | –
28 | C[C@]1(O)CC[C@@H](Nc2nc(NCc3cncnc3C(F)(F)F)ncc2C#N)CC1 [Cmpd 106] | – | 100 to 800
29 | CC1(C)C(O)C[C@@H]1Nc1nc(NCc2cncnc2OCCC(F)(F)F)ncc1C#N (stereo partly drawn) [Cmpd 107] | – | 100 to 800
30 | CC1(C)[C@@H](O)C[C@H]1Nc1nc(NCCc2ccc(Cl)c(Cl)c2)ncc1C#N [Cmpd 107] | 100 to 800 | –
31 | CC1(C)[C@@H](O)C[C@H]1Nc1nc(NCCc2ccccc2O)ncc1C#N [Cmpd 108] | 800 to 2000 | –
32 | N#Cc1cnc(NCc2cnccc2C(F)(F)F)nc1N[C@H]1C[C@H](O)C1 [Cmpd 108] | – | 100 to 800
33 | CC(C)(F)c1ncncc1CNc1ncc(C#N)c(N[C@H]2C[C@@H](CO)C2(C)C)n1 [Cmpd 109] | – | 100 to 800
34 | COCCOc1ccc(CCNc2ncc(C#N)c(N[C@@H]3C[C@H](O)C3(C)C)n2)cc1 [Cmpd 109] | 100 to 800 | –
35 | CC1(C)[C@@H](Nc2nc(NCc3cncnc3-c3ccc(F)cc3)ncc2C#N)C[C@@H]1O [Cmpd 111] | – | 100 to 800
36 | CC1(C)[C@@H](O)C[C@H]1Nc1nc(NCCc2ccc(-c3ccccc3)cc2)ncc1C#N [Cmpd 111] | 100 to 800 | –

Continued, values first:

Row | IC50 (Table 2) [nM] | IC50 [nM] | SMILES
37 | 100 to 800 | – | CC1(C)[C@@H](O)C[C@H]1Nc1nc(NCCc2ccc(S(N)(=O)=O)cc2)ncc1C#N [Cmpd 113]
38 | 800 to 2000 | – | CC1(C)[C@@H](O)C[C@H]1Nc1nc(NCCc2ccc(N3CCCCC3)cc2)ncc1C#N [Cmpd 114]
39 | 800 to 2000 | – | CC1(C)[C@@H](O)C[C@H]1Nc1nc(NCCc2ccc(OC3CCCC3)cc2)ncc1C#N [Cmpd 118]
40 | – | 100 to 800 | N#Cc1cnc(NCc2ccccc2Oc2ccccc2)nc1N[C@H]1CC[C@@H](O)CC1 [Cmpd 118]
41 | – | 100 to 800 | CC(C)c1ncncc1CNc1ncc(C#N)c(N[C@H]2C[C@@H](O)C2(C)C)n1 [Cmpd 119]
42 | 100 to 800 | – | CC1(C)[C@@H](O)C[C@H]1Nc1nc(NCCc2ccc(Oc3ccccc3)cc2)ncc1C#N [Cmpd 119]
43 | 100 to 800 | – | CC1(C)[C@@H](O)C[C@H]1Nc1nc(NCCc2ccc(-c3ccc(F)cc3)cc2)ncc1C#N [Cmpd 120]
44 | – | 100 to 800 | CC1(C)[C@H](O)C[C@@H]1Nc1nc(NCc2cnccc2C(F)(F)F)ncc1C(F)(F)F [Cmpd 120]
45 | – | 100 to 800 | CC(F)(F)COc1ncncc1CNc1ncc(C#N)c(N[C@H]2C[C@H](O)C2(C)C)n1 [Cmpd 121]
46 | 800 to 2000 | – | Cc1cc(C)n(-c2ccc(CCNc3ncc(C#N)c(N[C@@H]4C[C@H](O)C4(C)C)n3)cc2)n1 [Cmpd 121]
47 | 800 to 2000 | – | CC1(C)[C@@H](O)C[C@H]1Nc1nc(NCCc2ccc(CN3CCCC3=O)cc2)ncc1C#N [Cmpd 123]
48 | – | 100 to 800 | CCc1ncncc1CNc1ncc(C#N)c(N[C@H]2C[C@@H](O)C2(C)C)n1 [Cmpd 123]
49 | 100 to 800 | – | Cc1ncc(-c2ccc(CCNc3ncc(C#N)c(N[C@@H]4C[C@H](O)C4(C)C)n3)cc2)s1 [Cmpd 124]
50 | – | 800 to 2000 | N#Cc1cnc(NCc2cnccc2C(F)(F)F)nc1NC12CC3CC(CC(O)(C3)C1)C2 [Cmpd 124]
51 | 100 to 800 | – | CC1(C)[C@@H](O)C[C@H]1Nc1nc(NCCc2cc(C(F)(F)F)cc(C(F)(F)F)c2)ncc1C#N [Cmpd 125]
52 | – | < 100 | CC1(C)[C@H](O)C[C@H]1Nc1nc(NCc2cncnc2OCCC(F)(F)F)ncc1C(F)(F)F [Cmpd 125]
53 | 100 to 800 | – | CC1(C)[C@@H](O)C[C@H]1Nc1nc(NCCc2cccc3ccccc23)ncc1C#N [Cmpd 128]
54 | – | 100 to 800 | CCc1ncncc1CNc1ncc(C#N)c(N[C@@H]2C[C@@H](O)C2(C)C)n1 [Cmpd 128]
55 | – | 100 to 800 | CC(C)(CO)CNc1nc(NCc2cnccc2C(F)(F)F)ncc1C#N [Cmpd 129]
56 | 100 to 800 | – | CN(C)c1ccc(CCNc2ncc(C#N)c(N[C@@H]3CC[C@H](O)C(C)(C)C3)n2)cc1 [Cmpd 129]

Row | IC50 (Table 2) [nM] | IC50 [nM] | SMILES
57 | 100 to 800 | – | CC(=O)Nc1ccc(CCNc2ncc(C#N)c(N[C@@H]3CC[C@H](O)C(C)(C)C3)n2)cc1 [Cmpd 130]
58 | – | 100 to 800 | CC1(C)C(O)C(C)(C)C1Nc1nc(NCc2cnccc2C(F)(F)F)ncc1C#N (stereo not drawn) [Cmpd 130]
59 | – | 100 to 800 | CC1(C)[C@@H](CO)C[C@@H]1Nc1nc(NCc2cnccc2C(F)(F)F)ncc1C(F)(F)F [Cmpd 131]
60 | 800 to 2000 | – | CNC(=O)c1cccc(CCNc2ncc(C#N)c(N[C@@H]3CC[C@H](O)C(C)(C)C3)n2)c1 [Cmpd 131]
61 | 100 to 800 | – | CC1(C)C[C@H](Nc2nc(NCCc3ccccc3OC(F)F)ncc2C#N)CC[C@@H]1O [Cmpd 132]
62 | – | 100 to 800 | CC1(C)[C@H](O)C[C@@H]1Nc1nc(NCc2cncnc2-c2ccc(F)cc2)ncc1C#N [Cmpd 133]
63 | 100 to 800 | – | CN(C)c1ccc(CCNc2ncc(C#N)c(N[C@@H]3C[C@H](O)C3(C)C)n2)cc1 [Cmpd 133]
64 | – | 100 to 800 | CCc1ncncc1CNc1ncc(C#N)c(NC2CC(C)(O)C2(C)C)n1 (stereo not drawn) [Cmpd 135]
65 | 800 to 2000 | – | CNC(=O)c1cccc(CCNc2ncc(C#N)c(N[C@@H]3C[C@H](O)C3(C)C)n2)c1 [Cmpd 135]
66 | 100 to 800 | – | CC1(C)[C@@H](O)C[C@H]1Nc1nc(NCCc2ccccc2OC(F)F)ncc1C#N [Cmpd 136]
67 | – | 100 to 800 | CC1(C)[C@H](O)C[C@@H]1Nc1nc(NCc2c[n+]([O-])ccc2C(F)(F)F)ncc1C(F)(F)F [Cmpd 136]
68 | 100 to 800 | – | COc1cc(CCNc2ncc(C#N)c(N[C@@H]3CC[C@H](O)C(C)(C)C3)n2)ccc1C#N [Cmpd 137]
69 | 100 to 800 | – | CC1(C)C[C@H](Nc2nc(NCCc3ccc(C#N)c(Cl)c3)ncc2C#N)CC[C@@H]1O [Cmpd 139]
70 | – | 100 to 800 | CC1(C)[C@@H](Nc2nc(NCc3c[n+]([O-])ccc3C(F)(F)F)ncc2C(F)(F)F)C[C@@H]1O [Cmpd 139]
71 | – | 100 to 800 | CC(C)c1ncncc1CNc1ncc(C#N)c(N[C@H]2C[C@@H](CO)C2(C)C)n1 [Cmpd 140]
72 | 100 to 800 | – | CC1(C)C[C@H](Nc2nc(NCCc3ccc(C#N)c(C(F)(F)F)c3)ncc2C#N)CC[C@@H]1O [Cmpd 140]
73 | 100 to 800 | – | CC1(C)[C@@H](O)C[C@H]1Nc1nc(NCCc2ccc(C#N)c(C(F)(F)F)c2)ncc1C#N [Cmpd 141]
74 | – | 800 to 2000 | CC1(C)[C@H](CO)C[C@@H]1Nc1nc(NCc2c[n+]([O-])ccc2C(F)(F)F)ncc1C(F)(F)F [Cmpd 141]
75 | 100 to 800 | – | CC1(C)[C@@H](O)C[C@H]1Nc1nc(NCCc2ccc(C#N)c(Cl)c2)ncc1C#N [Cmpd 142]
